Assay results: publication PMC6416395, “B1.12: a novel peptide interacting with the extracellular loop of the EBV oncoprotein LMP1” (Scientific Reports, 2019)
“Also recorded” adds a separate entry of the source. Residues, ends and D or L forms follow the SMILES beside them.

Tests used:
[1] = test system: B1 peptide (first extracellular loop of LMP1); experiment: ITC of B1/B1.12 interaction; assay type: binding, Epstein-Barr virus (EBV); conditions: 30 °C, NaHCO3 buffer 0.1 M pH 5.7
Experimental: For ITC, analysis was performed at 30 °C using an isothermal titration calorimeter (VP-ITC, LLC Microcal Inc., Northampton, MA, USA). Peptides were suspended in NaHCO3 buffer (0.1 M, pH 5.7, after 2 hours of sample equilibration) and the reference cell was filled with the same buffer. B1 peptide (0.2 mM) was placed into 250 μL syringe and 1200 μL of B1.12 peptide (0.01 mM) was placed in the titration cell. The peptide solution was injected into the stirred sample cell containing B1.12 peptide in >20 injections (2 μL per injection) by a computer-controlled pump. The injection lasted 10 seconds with an interval of 120 seconds between successive injections. Heat released with each injection was measured (Differential Potential in µCal/sec) by the calorimeter in dynamic correction mode. Control experiments were performed by tittering the B1 peptide into the buffer solution at the same pH and concentrations with and without the B1 peptide, in order to discriminate the interaction process against the dilution of B1 and its possible self-association, respectively.

A20 (TNFAIP3) = experiment: RT-qPCR A20 expression in C666.1 cells; assay type: cell-based; conditions: B1.12-treated versus untreated C666.1, RT-qPCR normalised to GAPDH, n = 3 biological replicates
Source text: Total RNA from C666.1 cells treated or not with B1.12 and control peptides was extracted using TRIzol reagent. cDNA was synthetized using the reverse transcription kit (Invitrogen), and served as a template for detecting A20 gene expression by Real-time quantitative PCR using SYBR Premix Ex Taq (Tli RNase H Plus, Takara) and using CFX96 (Biorad). The housekeeping gene GAPDH was used as an internal control to normalize the expression levels of the gene. The primers used for the amplification of the A20 gene are as follows: forward: 5′-[…]-3′, and reverse: 5′-GGCGAAATTGGAACCTGA TTCCAAACTT-3′. Relative quantification of mRNA expression was performed by the comparative 2−ΔΔct method to calculate the difference between amplifications of A20 and GAPDH. […]

[2] = test system: B1 peptide (first extracellular loop of LMP1); experiment: NMR titration of B1/B1.12 interaction; assay type: binding, Epstein-Barr virus (EBV); conditions: H2O/D2O (90:10), 500 MHz
Experimental: The NMR experiments samples were prepared in 500 μL of H2O/D2O (90:10); using 1 mM of B1 peptide and 21 mM of B1.12 peptide. Titration experiment was also performed with varying the B1:B1.12 proportions (1:1; 3:1; 5:1; 7:1; 9:1). The NMR experiments were recorded on a Bruker spectrometer 500 MHz equipped with a TCI cryoprobe. Acquisition was performed with water suppression with excitation sculpting pulse sequence.

C666.1 cells [3] = experiment: MTT cell viability, C666.1; assay type: cell-based; conditions: increasing concentration to 200 µM, 48 h
Experimental: (§1) Three cell lines were used: C666-1 which is a native EBV-infected NPC-derived cell line constitutively expressing LMP1, HeLa cells transfected with native vector (Gpt) or harboring the cDNA encoding LMP1, and HT-29 which is a human colon cancer cell line All cells were maintained in RPMI medium 1640 supplemented with 5% (V/V) FBS (Gibco), 4 µg/mL Gentamycine and 2 mM L-glutamine at 37 °C in a humidified atmosphere of 5% CO2. These cell lines were kindly provided by Pr P. Busson (IGR-France).
Cells were plated into 96-well plates until 80% confluent and then treated with different concentrations of B1.12 peptide (100, 200, 300 and 400 µM). After 48 hours of incubation, 20 μL MTT (5 mg/mL) were added to each well. After 4 hours, 100 μL dimethyl sulfoxide (DMSO) was added to each well, and absorbance was measured at […] using a Varioskan™ Flash Multimode Reader (Thermofisher Scientific). The percentage of cell viability was calculated using this formula:(OD590 nm of treated cells/OD590 nm of untreated cells) × 100.

pNFκb (pRelA536) = experiment: Western blot pNFκb (pRelA536) in C666.1 cells; assay type: cell-based; conditions: 100 µM peptide, 24 hours, C666.1, Western blot, n = 4 biological replicates
Experimental: Cells were cultured at 80% confluency and then incubated with 100 µM B1.12 peptide for 24 hours. Subsequently, cells were washed twice with cold PBS and scrapped in ice-cold RIPA buffer (50 mM Tris pH 7.4, 5 mM EDTA pH 8.0, 150 mM NaCl, 0.1% SDS, 0.5% NaDOC, 0.5% NP 40) supplemented with 5 mM PMSF. After 30 minutes on ice, cells were sonicated, and cell debris were removed by centrifugation at 15,000 rpm at 4 °C for 15 minutes. Proteins were quantified using the Bradford Protein Assay (Bio-Rad) according to the manufacturer’s specifications. Thirty μg of total proteins were separated on 10% SDS–PAGE and transferred to PVDF membrane (Amersham Hybond-P). The membranes were blocked at 4 °C overnight with PBS 0.1% Tween 20 containing 5 mg/mL skimmed milk, prior to be incubated with pAkt (Biotechne, diluted 1/2500) pRelA536 (Biotechne, diluted 1/1000), and Tubulin (Thermofisher, diluted 1/1000) antibodies for 2 hours at room temperature, followed by incubation with anti-rabbit or anti-mouse conjugated to horseradish peroxidase at room temperature for 1 hour. The target protein band was visualized using the enhanced chemiluminescence detection system (Amersham ECL Prime Western Blotting Detection Reagent) and luminescent bands were visualized using the VERSADOC imaging system. Band densities were assessed by Image-J software.

HT29 cells = experiment: Cell cycle analysis, HT29; assay type: cell-based, human; conditions: HT29, 50 µM peptide
Experimental: as §1
Cell cycle analysis of C666.1 and HT29 cells was performed using the FXcycleTm PIi/RNnase staining solution (Invitrogen). Briefly, cells (4 × 10^5) were seeded and grown for 24 hours, and then incubated with serum-free RPMI for another 24 hours (starvation) to decrease cell constitutive signaling. After starvation, cells were incubated or not with 50 µM B1.12 peptide (C666.1 and HT29 cells) or control peptide (C666.1 cells) for 48 hours. Following incubation, cells were washed with PBS, trypsinized and centrifuged at 1200 rpm for 5 minutes. The cell pellet was then washed twice with PBS, and cells were fixed with 5 mL of ethanol 70% for 24 hours at 4 °C. […] The data were collected and analyzed by an Attune NxT Flow Cytometer (Thermofisher).

C666.1 cells [4] = experiment: Cell cycle analysis, C666.1; assay type: cell-based; conditions: C666.1, 50 µM peptide
Experimental: Cell cycle analysis of C666.1 and HT29 cells was performed using the FXcycleTm PIi/RNnase staining solution (Invitrogen). Briefly, cells (4 × 10^5) were seeded and grown for 24 hours, and then incubated with serum-free RPMI for another 24 hours (starvation) to decrease cell constitutive signaling. After starvation, cells were incubated or not with 50 µM B1.12 peptide (C666.1 and HT29 cells) or control peptide (C666.1 cells) for 48 hours. Following incubation, cells were washed with PBS, trypsinized and centrifuged at 1200 rpm for 5 minutes. The cell pellet was then washed twice with PBS, and cells were fixed with 5 mL of ethanol 70% for 24 hours at 4 °C. Aliquots of 2 × 10^5 ethanol-fixed cells were then centrifuged for 5 minutes at 450 g, washed with PBS, and then resuspended in Propidium Iodide Reagent and incubated for 30 minutes at room temperature, shielded from light. The data were collected and analyzed by an Attune NxT Flow Cytometer (Thermofisher).

[5] = propidium iodide FACS, 24 h (48 h elsewhere in the source)

CC(C)C[C@H](NC(=O)[C@H](CC(=O)O)NC(=O)[C@H](CC(C)C)NC(=O)[C@@H]1CCCN1C(=O)[C@H](CS)NC(=O)[C@H](C)N)C(=O)N[C@@H](CCCNC(=N)N)C(=O)N[C@@H](CO)C(=O)N1CCC[C@H]1C(=O)N[C@@H](CS)C(=O)NCC(N)=O [B1.12] (H-ACPLDLRSPCG-NH2; N-terminus and C-terminus assumed)
number of injections after which exothermic binding reaction ceases ([1]; 2 μL injections of B1 0.2 mM into B1.12 0.01 mM): nineteen | binding to target B1 (ITC) ([1]; B1 0.2 mM injected into B1.12 0.01 mM): ITC profile confirmed the binding of the B1.12 peptide to its target B1 peptide | A20 expression level (A20 (TNFAIP3)): the expression of A20 decreased compared to untreated cells; also recorded: the A20 level decreased in the C666.1 cells after B1.12 treatment | binding to target B1 (NMR) ([2]; 1 mM B1, 21 mM B1.12): bound specifically to its target B1 | B1 residues showing chemical shift variation ([2]; B1:B1.12 titration 1:1 to 9:1): Met2, Trp5 and Thr6; also recorded: Met^2, Trp^5 and Thr^6 | cell viability (in words) (C666.1 cells [3]): gradually decreases with increasing peptide concentration | pNFκb (pRelA536) expression (pNFκb (pRelA536)): a weak change; also recorded: decreased in B1.12-treated-C666.1 compared to those in the untreated or treated with control peptide | cell cycle phases versus untreated (in words) (HT29 cells): the cell cycle phases still unchanged | cells in G0/G1 phase (HT29 cells; [5]): 78.3% | cell cycle progression versus untreated (in words) (C666.1 cells [4]): inducing G0/G1 cell cycle arrest | cells in G0/G1 phase (C666.1 cells [4]; [5]): 73%
